Assay results reported in US12583870B2, “Azaheteroaryl compound and application thereof” (SHANGHAI BLUERAY BIOPHARMA CO., LTD., priority 2019, dated 2026).

Key:
[1] = test system: trimethylation level of histone H3K27 in G401 cells; experiment: ELISA (H3K27 trimethylation) analysis in G401 cells; assay type: cell-based; settings: Homo sapiens, G-401, 72 hours, H3K27me3 standardized to H3
Method in brief: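 Cells exposed 72 h to 10-point 3-fold dilutions, top 10 μM, 0.5% final DMSO. Acid-extracted histones assayed by ELISA (ECL) for H3K27me3, normalized to total H3 and to DMSO control; IC50 from dose-response fit.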

KARPAS-422 cells = experiment: Cell proliferation analysis, KARPAS-422, 13 days, CellTiter-Glo; assay type: cell-based; settings: Homo sapiens, 312 h
Method in brief: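 KARPAS-422 cells were treated with PRC2 inhibitors over 9 three-fold dilutions from 10 μM top (0.5% DMSO, duplicates) in RPMI-1640 with 15% FBS at 37 °C. Every 3–4 days cells were counted and reseeded at 1×10^4/well with fresh compound. Viability was read by CellTiter-Glo luminescence on day 13.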

[2] = target: T1, EED protein (His6-tagged full-length) binding to H3K27me3 polypeptide (Homo sapiens, UniProt O75530); experiment: AlphaScreen evaluation of blocking the binding of EED to H3K27Me3; settings: EED 60 nM, biotinylated H3K27me3 75 nM, 30 minutes incubation
T1 construct: His6-tagged full-length EED protein (441 amino acids)
Method in brief: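 His6-tagged full-length EED (60 nM working stock) and biotin-H3K27me3 peptide aa 19–33 (75 nM working stock) incubated 30 min RT with 9-point 3-fold compound series in 25 mM HEPES pH 8.0, 50 mM NaCl, 0.015% Tween 20, 0.5% BSA. Ni-chelate acceptor and streptavidin donor beads (5 μg/mL each), 1 h dark; IC50 from dose-response fit. Biotin-(His)6 counterscreen checked signal interference.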

T1 sequence (O75530 whole entry): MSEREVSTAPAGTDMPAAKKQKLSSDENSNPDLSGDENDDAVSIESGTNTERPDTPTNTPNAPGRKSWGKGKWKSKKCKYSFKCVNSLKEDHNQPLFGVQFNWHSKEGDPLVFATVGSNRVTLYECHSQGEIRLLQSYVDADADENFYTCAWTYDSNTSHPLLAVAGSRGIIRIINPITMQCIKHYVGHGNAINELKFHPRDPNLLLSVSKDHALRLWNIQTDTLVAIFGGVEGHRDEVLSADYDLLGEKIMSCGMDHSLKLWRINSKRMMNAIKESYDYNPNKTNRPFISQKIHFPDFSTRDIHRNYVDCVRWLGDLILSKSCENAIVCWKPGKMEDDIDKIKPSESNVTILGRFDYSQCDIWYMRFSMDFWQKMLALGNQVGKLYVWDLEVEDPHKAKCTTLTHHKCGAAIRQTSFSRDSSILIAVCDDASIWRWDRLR

| SMILES | IC50 [1] [µM] | IC50 (KARPAS-422 cells) [µM] | IC50 [2] [µM] |
| --- | --- | --- | --- |
| Cc1nc2c(-c3cnc(NCc4c(F)ccc5c4CCO5)n4cnnc34)cccc2o1 [N-((5-fluoro-2,3-dihydrobenzofuran-4-yl)methyl)-8-(2-methylbenzo[d]oxazol-4-yl)-[1,2,4]triazolo[4,3-c]pyrimidin-5-amine] | 0.0078 | 0.0042 | 0.0092 |
| OCc1ccc(-c2cnc(NCc3c(F)ccc4c3CCO4)n3cnnc23)c2nccn12 [(8-(5-(((5-fluoro-2,3-dihydrobenzofuran-4-yl)methyl)amino)-[1,2,4]triazolo[4,3-c]pyrimidin-8-yl)imidazo[1,2-a]pyridin-5-yl)methanol] | 0.0052 | 0.0086 | 0.021 |
| O=S1(=O)C=c2ccc(-c3cnc(NCc4c(F)ccc5c4CCCO5)n4cnnc34)cc2=C1 [5-(5-(((6-fluorochroman-5-yl)methyl)amino)-[1,2,4]triazolo[4,3-c]pyrimidin-8-yl)benzo[c]thiophene 2,2-dioxide] | 0.002 | 0.0016 | 0.0064 |
| Fc1ccc2c(c1CNc1ncc(-c3cnc4ccnn4c3)c3nncn13)CCO2 [N-((5-fluoro-2,3-dihydrobenzofuran-4-yl)methyl)-8-(pyrazolo[1,5-a]pyrimidin-6-yl)-[1,2,4]triazolo[4,3-c]pyrimidin-5-amine] | 0.018 | 0.0183 | 0.0057 |
| Cc1ccc(-c2cnc(NCc3c(F)ccc4c3CCO4)n3cnnc23)c2nc(CO)cn12 [(8-(5-(((5-fluoro-2,3-dihydrobenzofuran-4-yl)methyl)amino)-[1,2,4]triazolo[4,3-c]pyrimidin-8-yl)-5-methylimidazo[1,2-a]pyridin-2-yl)methanol] | 0.0014 | 0.0033 | 0.0083 |
| CC1=C(F)c2cc(-c3cnc(NCc4c(F)ccc5c4[C@H]4C[C@H]4O5)n4cnnc34)ccc2S1(=O)=O [3-fluoro-5-(5-((((1aR,6bR)-5-fluoro-1a,6b-dihydro-1H-cyclopropa[b]benzofuran-6-yl)methyl)amino)-[1,2,4]triazolo[4,3-c]pyrimidin-8-yl)-2-methylbenzo[b]thiophene 1,1-dioxide] | 0.0058 | 0.0055 | 0.0042 |
| Cc1cc(-c2cnc(NCc3c(F)ccc4c3CCO4)n3cnnc23)c2nccn2c1 [N-((5-fluoro-2,3-dihydrobenzofuran-4-yl)methyl)-8-(6-methylimidazo[1,2-a]pyridin-8-yl)-[1,2,4]triazolo[4,3-c]pyrimidin-5-amine] | 0.014 | 0.0116 | 0.0243 |
| Fc1ccc2c(c1CNc1ncc(-c3cc(Cl)cn4ccnc34)c3nncn13)CCO2 [8-(6-chloroimidazo[1,2-a]pyridin-8-yl)-N-((5-fluoro-2,3-dihydrobenzofuran-4-yl)methyl)-[1,2,4]triazolo[4,3-c]pyrimidin-5-amine] | 0.0085 | 0.042 | 0.0044 |
| Fc1ccc2c(c1CNc1ncc(-c3cccn4cnnc34)c3nncn13)[C@H]1C[C@H]1O2 [8-([1,2,4]triazolo[4,3-a]pyridin-8-yl)-N-(((1aR,6bR)-5-fluoro-1a,6b-dihydro-1H-cyclopropa[b]benzofuran-6-yl)methyl)-[1,2,4]triazolo[4,3-c]pyrimidin-5-amine] | 0.0074 | 0.0048 | 0.0095 |
| CCc1cnc2c(-c3cnc(NCc4c(F)ccc5c4CCO5)n4cnnc34)ccc(C)n12 [8-(3-ethyl-5-methylimidazo[1,2-a]pyridin-8-yl)-N-((5-fluoro-2,3-dihydrobenzofuran-4-yl)methyl)-[1,2,4]triazolo[4,3-c]pyrimidin-5-amine] | 0.0025 | 0.0022 | 0.003 |
| O=S1(=O)C=Cc2cc(-c3cnc(NCc4c(F)ccc5c4CCO5)n4cnnc34)ccc21 [5-(5-(((5-fluoro-2,3-dihydrobenzofuran-4-yl)methyl)amino)-[1,2,4]triazolo[4,3-c]pyrimidin-8-yl)benzo[b]thiophene 1,1-dioxide] | 0.0021 | 0.0007 | 0.0049 |
| Cc1cc2c(cc1-c1cnc(NCc3c(F)ccc4c3CCO4)n3cnnc13)C=CS2(=O)=O [5-(5-(((5-fluoro-2,3-dihydrobenzofuran-4-yl)methyl)amino)-[1,2,4]triazolo[4,3-c]pyrimidin-8-yl)-6-methylbenzo[b]thiophene 1,1-dioxide] | 0.0009 | 0.0005 | 0.0041 |
| Cc1ccc(-c2cnc(NCc3c(F)ccc4c3CCO4)n3cnnc23)c2ncc(CCO)n12 [2-(8-(5-(((5-fluoro-2,3-dihydrobenzofuran-4-yl)methyl)amino)-[1,2,4]triazolo[4,3-c]pyrimidin-8-yl)-5-methylimidazo[1,2-a]pyridin-3-yl)ethan-1-ol] | 0.0016 | 0.0024 | 0.0099 |
| Fc1ccc2c(c1CNc1ncc(-c3cccn4cc(C(F)(F)F)nc34)c3nncn13)CCO2 [N-((5-fluoro-2,3-dihydrobenzofuran-4-yl)methyl)-8-(2-(trifluoromethyl)imidazo[1,2-a]pyridin-8-yl)-[1,2,4]triazolo[4,3-c]pyrimidin-5-amine] | 0.0024 | 0.0017 | 0.0035 |
| CC(=O)c1c(C)nc2c(-c3cnc(NCc4c(F)ccc5c4CCO5)n4cnnc34)cccn12 [1-(8-(5-(((5-fluoro-2,3-dihydrobenzofuran-4-yl)methyl)amino)-[1,2,4]triazolo[4,3-c]pyrimidin-8-yl)-2-methylimidazo[1,2-a]pyridin-3-yl)ethan-1-one] | 0.0025 | 0.0016 | 0.0048 |
| CC1=C(F)c2cc(-c3cnc(NCc4c(F)ccc5c4CCO5)n4cnnc34)ccc2S1(=O)=O [3-fluoro-5-(5-(((5-fluoro-2,3-dihydrobenzofuran-4-yl)methyl)amino)-[1,2,4]triazolo[4,3-c]pyrimidin-8-yl)-2-methylbenzo[b]thiophene 1,1-dioxide] | 0.0073 | 0.0049 | 0.0026 |
| CC1=CS(=O)(=O)c2ccc(-c3cnc(NCc4c(F)ccc5c4[C@H]4C[C@H]4O5)n4cnnc34)cc21 [5-(5-((((1aR,6bR)-5-fluoro-1a,6b-dihydro-1H-cyclopropa[b]benzofuran-6-yl)methyl)amino)-[1,2,4]triazolo[4,3-c]pyrimidin-8-yl)-3-methylbenzo[b]thiophene 1,1-dioxide] | 0.0136 | 0.0243 | 0.0049 |
| O=S1(=O)C(F)=Cc2cc(-c3cnc(NCc4c(F)ccc5c4[C@H]4C[C@H]4O5)n4cnnc34)ccc21 [2-fluoro-5-(5-((((1aR,6bR)-5-fluoro-1a,6b-dihydro-1H-cyclopropa[b]benzofuran-6-yl)methyl)amino)-[1,2,4]triazolo[4,3-c]pyrimidin-8-yl)benzo[b]thiophene 1,1-dioxide] | 0.16 | 0.079 | 0.566 |
| Fc1ccc2c(c1CNc1ncc(-c3ccc4ccnn4c3)c3nncn13)CCO2 [N-((5-fluoro-2,3-dihydrobenzofuran-4-yl)methyl)-8-(pyrazolo[1,5-a]pyridin-6-yl)-[1,2,4]triazolo[4,3-c]pyrimidin-5-amine] | 0.0061 | 0.0154 | 0.0043 |
